PubChem BioAssay AID977626 (Broad Institute, 2014)
Results filed as inconclusive are left out. Active and inactive are the calls of the source. How the calls were made is not given here.

Tests used:
[1] = test system: E. coli WT-RFP vs G2058 humanized-GFP mixed culture, fluorescence; experiment: selective 23S rRNA G2058 site antibacterials – G2058 mutant GFP vs wild-type RFP, cherry-pick, OD600, dose response (AID 977626)
[2] = as above; settings: E. coli WT-RFP vs G2058 humanized-GFP mixed culture, fluorescence; at 50 µM (top of the series)
[3] = E. coli WT-RFP vs G2058 humanized-GFP mixed culture, measured here: total growth OD600
[4] = measured here: G2058 humanized mutant strain GFP

With `Cc1ccc(C)c(NC(=O)CSc2nc3nc(-c4cccs4)cc(C(F)(F)F)c3c(=O)[nH]2)c1` the AC50 [1, 3] was 8.26 µM, the AC50 [1, 4] was 9.81 µM and the activity change, negative = inhibition [2] was -7.41 (inactive).

Compound `COc1ccc(Nc2oc(-c3ccco3)nc2S(=O)(=O)c2ccc(F)cc2)cc1` has an AC50 [1] of 3.67 µM.

For `COC(=O)c1c(NC(=O)CCC(=O)O)sc(Cc2ccccc2)c1C`, the AC50 [1] was 9.22 µM, the AC50 [1, 3] was 3.27 µM and the AC50 [1, 4] was 3.03 µM.

For `O=C(O)c1cc([N+](=O)[O-])ccc1NCc1ccccc1`, the AC50 [1, 3] was 14.4 µM, the AC50 [1, 4] was 38.9 µM and the activity change, negative = inhibition [2] was 23.8 (inactive).

With `COc1ccc(NC(=O)c2ccc(-c3ccc([N+](=O)[O-])cc3)o2)cc1` the AC50 [1] was 2.63 µM, the AC50 [1, 3] was 5.22 µM and the AC50 [1, 4] was over 100 µM.

In the case of `COc1ccc(Cn2c(-c3ccc(Cl)cc3)c[n+]3ccccc23)cc1`, the AC50 [1, 3] is reported as 45.6 µM and the activity change, negative = inhibition [2] is reported as -3.75 (inactive).

In the case of `CCN(CC)CCn1c2ccccc2c2nc3ccc([N+](=O)[O-])cc3cc21`, the AC50 [1, 3] is reported as 4.58 µM, the AC50 [1, 4] is reported as 5.66 µM and the activity change, negative = inhibition [2] is reported as 26.7 (inactive).
